Biological target: ROMK (Kir1.1) channel (Homo sapiens (Human), UniProt P48048)
Assay: Thallium Flux Assay
Assay type: cell-based
Description: A Thallium Flux Assay was performed on each of the final product compounds of the Examples. This assay has been described previously; see, e.g., PCT Published Application WO 2013/062900.

ROMK (Kir1.1) channel, sequence (P48048 whole entry): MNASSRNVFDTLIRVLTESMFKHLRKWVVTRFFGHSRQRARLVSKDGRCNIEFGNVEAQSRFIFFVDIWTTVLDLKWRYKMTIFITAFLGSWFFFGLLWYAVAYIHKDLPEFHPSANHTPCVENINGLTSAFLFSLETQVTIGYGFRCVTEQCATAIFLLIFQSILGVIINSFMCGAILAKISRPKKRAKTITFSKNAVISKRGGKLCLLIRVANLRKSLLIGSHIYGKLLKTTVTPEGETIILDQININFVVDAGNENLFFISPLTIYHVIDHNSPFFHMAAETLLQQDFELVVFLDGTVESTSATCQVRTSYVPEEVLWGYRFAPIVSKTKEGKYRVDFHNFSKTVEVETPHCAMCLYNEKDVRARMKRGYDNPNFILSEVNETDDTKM

Row | IC50 [nM] | Compound
1 | 41 | C[C@H]1C[C@]2(CC[C@@H](N(C)Cc3ccc(-n4cnnn4)nn3)CC2)C(=O)N1C1=CC(=O)OC1 [Example 104, (3S,5r,8S)-8-(((6-(1H-tetrazol-1-yl)pyridazin-3-yl)methyl)(methyl)amino)-3-methyl-2-(5-oxo-2,5-dihydrofuran-3-yl)-2-azaspiro[4.5]decan-1-one]
2 | 28 | CC1=C(N2CC[C@]3(CC[C@H](N(C)Cc4ccc(-n5cnnn5)nc4)CC3)C2=O)COC1=O [Example 83]
3 | 300 | CC1=C(N2CC[C@]3(CC[C@@H](N(C)[C@@H](CO)c4ccc(-n5cnnn5)nc4)CC3)C2=O)COC1=O [Example 102]
4 | 550 | CC1=C(N2CC[C@]3(CC[C@@H](NCc4ccc5c(c4)-c4nnnn4C5)CC3)C2=O)COC1=O [Example 47, (5r,8r)-2-(4-methyl-5-oxo-2,5-dihydrofuran-3-yl)-8-[(5H-tetrazolo[5,1-a]isoindol-8-ylmethyl)amino]-2-azaspiro[4.5]decan-1-one]
5 | 360 | CC1=C(N2CC[C@]3(CC[C@H](N[C@H](CO)c4ccc(-n5cnnn5)nc4)CC3)C2=O)COC1=O [Example 77]

Continued, compound first:

Row | Compound | IC50 [nM]
6 | CC1=C(N2CC[C@]3(CC[C@@H](NCc4ccc(-n5cnnn5)cc4)CC3)C2=O)COC1=O [Example 44, (5r,8r)-2-(4-methyl-5-oxo-2,5-dihydrofuran-3-yl)-8-{[4-(1H-tetrazol-1-yl)benzyl]amino}-2-azaspiro[4.5]decan-1-one] | 3.1
7 | C[C@H]1C[C@]2(CC[C@H](NCc3ccc(-n4cnnn4)nc3)CC2)C(=O)N1C1=CC(=O)OC1 [Example 22, (3S,5s,8R)-3-methyl-2-(5-oxo-2,5-dihydrofuran-3-yl)-8-({[6-(1H-tetrazol-1-yl)pyridin-3-yl]methyl}amino)-2-azaspiro[4.5]decan-1-one] | 130
8 | CC1=C(N2CC[C@]3(CC[C@](C)(N(C)Cc4ccc(-n5cnnn5)nn4)CC3)C2=O)COC1=O [Example 115] | 15
9 | CC1=C(N2CC[C@]3(CC[C@@H](NCCc4ccc5c(c4)COC5=O)CC3)C2=O)COC1=O [Example 2, (5r,8r)-2-(4-methyl-5-oxo-2,5-dihydrofuran-3-yl)-8-{[2-(1-oxo-1,3-dihydro-2-benzofuran-5-yl)ethyl]amino}-2-azaspiro[4.5]decan-1-one] | 44
10 | (5s,8s)-2-(4-methyl-5-oxo-2,5-dihydrofuran-3-yl)-8-({[5-(1H-tetrazol-1-yl)pyrazin-2-yl]methyl}amino)-2-azaspiro[4.5]decan-1-one [Example 13] | 32
11 | C[C@@H]1C[C@]2(CC[C@@H](NCc3ccc(-n4cnnn4)nc3)CC2)C(=O)N1C1=CC(=O)OC1 [Example 23, (3R,5r,8R)-3-methyl-2-(5-oxo-2,5-dihydrofuran-3-yl)-8-({[6-(1H-tetrazol-1-yl)pyridin-3-yl]methyl}amino)-2-azaspiro[4.5]decan-1-one] | 720

Reference: patent US9718808B2, “Inhibitors of the renal outer medullary potassium channel” (Merck Sharp & Dohme Corp., priority 2014, dated 2017)
